The target of assay [1] is T1, VEGFR2 intracellular domain protein (Homo sapiens, UniProt P35968).
T1 construct: made in house; host or cells: SF-21 insect cells, recombinant baculovirus BAC-VEGFR2
In words: Vascular endothelial growth factor receptor 2 (VEGFR2) kinase inhibitory activity (AlphaScreen). Type of assay: biochemical. As to the method: Human vascular endothelial growth factor receptor 2 (hereinafter to be referred to as VEGFR2) gene was cloned by PCR using cDNA Libraries Human Placenta (Clontech) as a template. […] The primer base sequence is shown below.
SF-21 cells were sown at 1×10^6 cells/mL to Sf-900II SFM medium (1 L, Invitrogen) containing 10% fetal bovine serum (trace), 50 mg/L Gentamicin (Invitrogen) and 0.1% Pluronic F-68 (Invitrogen), and shaking culture was performed using a 2 L volume Erlenmeyer flask at 27° C., 100 rpm. After culturing for 24 hrs, recombinant baculovirus BAC-VEGFR2 (13.4 mL) was added to the mixture, and the mixture was further cultured for 3 days. The culture medium was centrifuged at 2,000 rpm for 5 min to give virus-infected cells. The infected cells were washed with a phosphate buffered saline (Invitrogen), centrifuged under the same conditions, and the cells were preserved at −80° C. The cryopreserved cells were thawed in ice, suspended in buffer A (50 mM Tris buffer (30 mL, pH 7.4) containing 20% glycerol, 0.15 M NaCl) supplemented with Complete Protease Inhibitor (Boehringer), and ruptured 3 times with a Polytron homogenizer (Kinematica) at 20,000 rpm for 30 sec. The ruptured medium was clarified by centrifugation at 40,000 rpm for 30 min and filtered with a 0.45 μm filter. The filtrate was passed through a column packed with Anti-FLAG M2 Affinity Gel (4 mL, Sigma) at a flow rate of about 0.5 mL/min. The column was washed with buffer A, and eluted with buffer A containing 100 μg/mL of FLAG peptide. The eluate was concentrated with Vivaspin 20 (Vivascience) having a molecular weight cut off of 30K. The buffer of this concentrate was exchanged using NAP™ 25 column (Amersham Bioscience) equilibrated with buffer A. The fractions containing intracellular domain protein of VEGFR2 were collected, glycerol was added to the final concentration of 50% and cryopreserved at −80° C.
A test compound dissolved in dimethyl sulfoxide (DMSO) was diluted with a buffer (50 mM Tris-HCl (pH 7.5), 5 mM MgCl2, 5 mM MnCl2, 2 mM dithiothreitol, 0.01% Tween-20). To this compound solution (5 μL) was added a buffer (10 μL) containing 50 ng/mL of VEGFR2 intracellular domain protein and 250 ng/mL of biotin labeled polypeptide biotinyl-poly-Glu:Tyr (4:1) (CIS bio International). […] The reaction solution was allowed to stand at 25° C. for 16 hrs, and the wells were counted using a plate reader (Fusion™ (PerkinElmer)). The kinase inhibitory rate (%) of the test compound was calculated by the following formula: Inhibitory rate (%)=(1−(count of test compound−blank)÷(control−blank))×100
The count of the solution reacted without addition of the compound was used as a “control”, and the count of the solution without the compound and ATP was used as a “blank”.
(In general: Bead proximity is the source of the signal in Alpha formats.)

The subject of assay [2] is Human umbilical vein-derived vascular endothelial cells (HUVEC). In words: Vascular endothelial cell proliferation inhibitory test (VEGF-stimulated HUVEC). Type of assay: cell-based. Conditions: 120 h, 5 days of culture with VEGF. In short, it runs like this:
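HUVEC (3000 cells/well) in medium with 3% FBS, cultured overnight, then given test substance plus VEGF (120 ng/mL in the added medium). After 5 days at 37 °C, Cell Counting Kit-8 was applied for 2-3 h and A450 read. IC50 relative to no-compound wells, by logistic nonlinear least-squares fit.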

Assay [3] has as its target T2, Tie2 intracellular domain protein (Homo sapiens, UniProt Q02763).
T2 construct: 50 ng/mL of Tie2 intracellular domain protein (Millipore); purchased Millipore
The assay can be described thus: TIE2 kinase inhibitory activity (AlphaScreen). Type of assay: biochemical.

The text below walks through data of patent US8445509B2, “Fused heterocyclic derivatives and use thereof” (Takeda Pharmaceutical Company Limited, priority 2008, dated 2013).

T1 sequence (P35968 786-1356 limits assumed): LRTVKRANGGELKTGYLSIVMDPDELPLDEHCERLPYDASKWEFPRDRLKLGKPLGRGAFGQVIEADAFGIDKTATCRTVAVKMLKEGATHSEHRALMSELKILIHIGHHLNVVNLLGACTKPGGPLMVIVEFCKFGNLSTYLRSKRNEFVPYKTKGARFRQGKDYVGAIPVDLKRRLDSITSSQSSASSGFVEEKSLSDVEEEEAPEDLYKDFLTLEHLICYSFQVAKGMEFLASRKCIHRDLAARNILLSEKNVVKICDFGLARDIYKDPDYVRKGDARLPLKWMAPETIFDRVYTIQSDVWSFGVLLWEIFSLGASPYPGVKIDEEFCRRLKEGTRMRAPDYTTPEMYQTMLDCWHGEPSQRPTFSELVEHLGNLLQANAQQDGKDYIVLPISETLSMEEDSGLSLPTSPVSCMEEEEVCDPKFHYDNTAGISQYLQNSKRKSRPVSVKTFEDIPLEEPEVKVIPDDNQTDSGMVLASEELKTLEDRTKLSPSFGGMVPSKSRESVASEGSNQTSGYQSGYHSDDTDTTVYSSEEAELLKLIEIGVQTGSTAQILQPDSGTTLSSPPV
T2 sequence (Q02763 770-1124 limits assumed): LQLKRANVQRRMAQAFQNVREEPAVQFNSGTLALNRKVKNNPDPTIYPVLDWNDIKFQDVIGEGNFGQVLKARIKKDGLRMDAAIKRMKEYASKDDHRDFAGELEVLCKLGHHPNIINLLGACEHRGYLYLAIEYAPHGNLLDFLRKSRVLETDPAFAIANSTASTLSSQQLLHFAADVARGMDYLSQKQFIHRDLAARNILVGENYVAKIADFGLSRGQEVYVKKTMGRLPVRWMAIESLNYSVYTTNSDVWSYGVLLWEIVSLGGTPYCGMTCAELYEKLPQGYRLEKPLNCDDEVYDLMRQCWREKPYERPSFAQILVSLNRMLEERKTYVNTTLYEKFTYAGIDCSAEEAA

One may read the IC50 as the concentration that gives 50% inhibition. For the compound `Cc1cc(C(=O)Nc2ccc(Oc3ccc4nc(NC(=O)C5CC5)cn4c3)c(F)c2)c(=O)n(-c2ccc(F)cc2)c1` [Example 66, N-[4-({2-[(cyclopropylcarbonyl)amino]imidazo[1,2-a]pyridin-6-yl}oxy)-3-fluorophenyl]-1-(4-fluorophenyl)-5-methyl-2-oxo-1,2-dihydropyridine-3-carboxamide], the IC50 is no more than 1000 nM in assay [1], no more than 2000 nM in assay [2] and no more than 1000 nM in assay [3].

As to `Cc1cc(C(=O)Nc2ccc(Oc3ccc4nc(NC(=O)C5CC5)cn4c3)c(F)c2)c(=O)n(-c2ccc(F)cc2)c1C` [Example 70, N-[4-({2-[(cyclopropylcarbonyl)amino]imidazo[1,2-a]pyridin-6-yl}oxy)-3-fluorophenyl]-1-(4-fluorophenyl)-5,6-dimethyl-2-oxo-1,2-dihydropyridine-3-carboxamide], the IC50 is no more than 1000 nM in assay [1], no more than 2000 nM in assay [2] and no more than 1000 nM in assay [3].

`Cc1ccc(C(=O)Nc2ccc(Oc3ccc4nc(NC(=O)C5CC5)cn4c3)cc2)[n+]([O-])c1-c1ccc(F)cc1` [Example 72, N-[4-({2-[(cyclopropylcarbonyl)amino]imidazo[1,2-a]pyridin-6-yl}oxy)phenyl]-6-(4-fluorophenyl)-5-methylpyridine-2-carboxamide 1-oxide]: the IC50 in assay [1] is no more than 1000 nM; in assay [2], no more than 2000 nM; in assay [3], no more than 1000 nM.

Consider `Cc1ccc(C(=O)Nc2ccc(Oc3ccc4nc(NC(=O)C5CC5)cn4c3)c(F)c2)c(=O)n1-c1cccc(F)c1` [Example 75, N-[4-({2-[(cyclopropylcarbonyl)amino]imidazo[1,2-a]pyridin-6-yl}oxy)-3-fluorophenyl]-1-(3-fluorophenyl)-6-methyl-2-oxo-1,2-dihydropyridine-3-carboxamide], for which the IC50 in assay [1] is no more than 1000 nM; in assay [2], no more than 2000 nM; in assay [3], no more than 1000 nM.

`Cc1ccc(C(=O)Nc2ccc(Oc3ccn4nc(NC(=O)C5CC5)nc4c3)c(F)c2)c(=O)n1-c1ccc(F)cc1` [Example 76, N-[4-({2-[(cyclopropylcarbonyl)amino][1,2,4]triazolo[1,5-a]pyridine-7-yl}oxy)-3-fluorophenyl]-1-(4-fluorophenyl)-6-methyl-2-oxo-1,2-dihydropyridine-3-carboxamide]: the IC50 was no more than 1000 nM in assay [1], no more than 2000 nM in assay [2] and no more than 1000 nM in assay [3].

For the compound `Cc1c(C(=O)Nc2ccc(Oc3ccc4nc(NC(=O)C5CC5)cn4c3)c(F)c2)c(=O)n(-c2ccc(F)cc2)n1C` [Example 77, N-[4-({2-[(cyclopropylcarbonyl)amino]imidazo[1,2-a]pyridin-6-yl}oxy)-3-fluorophenyl]-2-(4-fluorophenyl)-1,5-dimethyl-3-oxo-2,3-dihydro-1H-pyrazole-4-carboxamide], the IC50 in assay [1] was no more than 1000 nM; in assay [2] it was no more than 2000 nM; in assay [3], no more than 1000 nM.

Take `CC1CCN(C(=O)Nc2ccc(Oc3ccc4nc(NC(=O)C5CC5)cn4c3)c(F)c2)C(=O)N1c1ccc(F)cc1` (stereo not drawn) [Example 80, N-[4-({2-[(cyclopropylcarbonyl)amino]imidazo[1,2-a]pyridin-6-yl}oxy)-3-fluorophenyl]-3-(4-fluorophenyl)-4-methyl-2-oxotetrahydropyrimidine-1(2H)-carboxamide]: the figures for the concentration for half-maximal inhibition (IC50) in assay [1], in assay [2] and in assay [3] were no more than 1000 nM, no more than 2000 nM and no more than 1000 nM, respectively.

Consider `CC1=C(c2ccc(F)cc2)C(=O)N(C(=O)Nc2ccc(Oc3ccc4nc(NC(=O)C5CC5)cn4c3)c(F)c2)CC1` [Example 81, N-[4-({2-[(cyclopropylcarbonyl)amino]imidazo[1,2-a]pyridin-6-yl}oxy)-3-fluorophenyl]-5-(4-fluorophenyl)-4-methyl-6-oxo-3,6-dihydropyridine-1(2H)-carboxamide], for which the IC50 in assay [1] is no more than 1000 nM; in assay [2], no more than 2000 nM; in assay [3] it was no more than 1000 nM.

In the case of `Cc1cc(C)n(-c2ccc(F)cc2)c(=O)c1C(=O)Nc1ccc(Oc2ccc3nc(NC(=O)C4CC4)cn3c2)c(F)c1` [Example 82, N-[4-({2-[(cyclopropylcarbonyl)amino]imidazo[1,2-a]pyridin-6-yl}oxy)-3-fluorophenyl]-1-(4-fluorophenyl)-4,6-dimethyl-2-oxo-1,2-dihydropyridine-3-carboxamide], the IC50 was no more than 1000 nM in assay [1], no more than 2000 nM in assay [2] and no more than 1000 nM in assay [3].

For the compound `Cc1ccc(C(=O)Nc2ccc(Oc3ccc4nc(NC(=O)C5CC5)cn4c3)cc2F)[n+]([O-])c1-c1ccc(F)cc1` [Example 84, N-[4-({2-[(cyclopropylcarbonyl)amino]imidazo[1,2-a]pyridin-6-yl}oxy)-2-fluorophenyl]-6-(4-fluorophenyl)-5-methylpyridine-2-carboxamide 1-oxide], the IC50 in assay [1] was no more than 1000 nM; in assay [2], no more than 2000 nM; in assay [3] it was no more than 1000 nM.

Turning to `Cc1ccc(C(=O)Nc2ccc(Oc3ccc4nc(NC(=O)C5CC5)cn4c3)c(F)c2)[n+]([O-])c1-c1cccc(F)c1` [Example 93, N-[4-({2-[(cyclopropylcarbonyl)amino]imidazo[1,2-a]pyridin-6-yl}oxy)-3-fluorophenyl]-6-(3-fluorophenyl)-5-methylpyridine-2-carboxamide 1-oxide], the half-maximal inhibitory concentration (IC50) was no more than 1000 nM in assay [1], no more than 2000 nM in assay [2] and no more than 1000 nM in assay [3].
